Measurements from ChEMBL document CHEMBL1221225, “A small molecule that directs differentiation of human ESCs into the pancreatic lineage” (Nat Chem Biol, 2009).
Activity calls are given as the source filed them. No cut-off for these calls is given here.

Legend:
[1] = tested on: HUES8; assay: Induction of human HUES8 cell differentiation into pancreatic progenitor cell assessed as increase in NGN3 mRNA expression at 300 nM after 4 days by RT-PCR analysis cells pregrown in medium containing Wnt, activin, FGF10, KAAD-cyclopamine and retinoic acid; type: functional, cell-based
[2] = Induction of human HUES8 differentiation into pancreatic lineage assessed as increase in amylase/CPA double-positive exocrine cells at 300 nM after 4 days by RT-PCR (reference value: 1.6+/-0.2%); type: functional
[3] = tested on: Intestine; assay: Induction of CDX2 expression in CD1 nude mouse intestine at 300 nM after 4 days by fluorescent confocal microscopy; type: functional, tissue-based
[4] = tested on: HUES8; assay: Induction of human HUES8 cell differentiation into pancreatic progenitor cell assessed as increase in Pdx1 mRNA expression at 300 nM after 4 days by RT-PCR analysis cells pregrown in medium containing Wnt, activin, FGF10, KAAD-cyclopamine and retinoic acid; type: functional, cell-based
[5] = species: Mus musculus; assay: Induction of desmin expression in CD1 nude mouse mesoderm at 300 nM after 4 days by fluorescent confocal microscopy; type: functional, tissue-based
[6] = tested on: HUES8; assay: Induction of human HUES8 cell differentiation into pancreatic progenitor cell assessed as increase in SOX9 mRNA expression at 300 nM after 4 days by RT-PCR analysis cells pregrown in medium containing Wnt, activin, FGF10, KAAD-cyclopamine and retinoic acid; type: functional, cell-based
[7] = Induction of human HUES8 cell differentiation into pancreatic progenitor cells assessed as increase in Pdx1-expression in cells pregrown with medium containing Wnt, activin, FGF10, KAAD-cyclopamine and retinoic acid at 300 nM after 4 days by Opera high content screening system relative to control; type: functional
[8] = tested on: Liver; assay: Induction of AFP expression in CD1 nude mouse liver at 300 nM after 4 days by fluorescent confocal microscopy; type: functional, tissue-based
[9] = Induction of human HUES8 differentiation into pancreatic lineage assessed as increase in DBA-positive exocrine cells at 300 nM after 4 days by RT-PCR (reference value: 0.8+/-0.2%); type: functional
[10] = species: Mus musculus; assay: Induction of MYOD expression in CD1 nude mouse mesoderm at 300 nM after 4 days by fluorescent confocal microscopy; type: functional
[11] = Induction of human GTE cells differentiation into pancreatic lineage assessed as increase in Pdx1-expressing cells at 300 nM after 4 days by immunocytochemistry pregrown in medium with FGF10 and KAAD-cyclopamine (Rvb (DMSO) = 2.8+/-0.6%); type: functional
[12] = species: Homo sapiens; assay: Induction of human HUES8 differentiation into definitive endoderm assessed as expression of SOX17 at 300 nM after 3 days by immunocytochemistry in presence of Wnt3a and activin A; type: functional
[13] = Inhibition of PKC signaling in human HUES8 cells assessed as decrease in Pdx1-expressing cells at 1 uM after 4 days cells pregrown in medium with Wnt3a, activin A, FGF10, KAAD-cyclopamine and retinoic acid in presence of 1 uM BISI by immunocytochemistry (reference value: 26.9+/-2.8%); type: cell-based
[14] = species: Mus musculus; assay: Induction of mouse AV3 Pdx1-expressing cell differentiation assessed as increase in SOX9 expression at 300 nM after 6 days by immunohistochemistry pretreated with 1000 ng/ml recombinant mouse Nodal for 5 days; type: functional
[15] = Induction of human HUES8 differentiation into pancreatic lineage assessed as increase in DBA-positive exocrine cells at 300 nM after 4 days by RT-PCR (Rvb (DMSO) = 0%); type: functional
[16] = species: Homo sapiens; assay: Induction of C-peptide expression in human HUES8 insulin-producing cells at 300 nM after 4 days by immunocytochemistry relative to control; type: functional
[17] = tested on: AV3; assay: Induction of mouse AV3 cell differentiation into pancreatic lineage assessed as increase in Foxa2 mRNA expression at 300 nM after 6 days by RT-PCR analysis pretreated with 1000 ng/ml recombinant mouse Nodal for 5 days; type: functional, cell-based
[18] = tested on: HUES8; assay: Induction of human HUES8 cell differentiation into pancreatic progenitor cell assessed as increase in HNF6 mRNA expression at 300 nM after 4 days by RT-PCR analysis cells pregrown in medium containing Wnt, activin, FGF10, KAAD-cyclopamine and retinoic acid; type: functional, cell-based
[19] = species: Mus musculus; assay: Induction of SOX7 expression in CD1 nude mouse extra-embryonic endoderm at 300 nM after 4 days by fluorescent confocal microscopy; type: functional, tissue-based
[20] = species: Homo sapiens; assay: Effect on human HUES8 differentiation into neuronal lineage assessed as c-peptide/betaIIItubulin double positive cells at 300 nM after 4 days by immunocytochemistry; type: functional, cell-based
[21] = tested on: HUES8; assay: Induction of human HUES8 cell differentiation into endocrine progenitor cell assessed as increase in NKX2.2 mRNA expression at 300 nM after 4 days by RT-PCR analysis cells pregrown in medium containing Wnt, activin, FGF10, KAAD-cyclopamine and retinoic acid; type: functional, cell-based
[22] = tested on: Lung; assay: Induction of SOX2 expression in CD1 nude mouse lung at 300 nM after 4 days by fluorescent confocal microscopy; type: functional, tissue-based
[23] = tested on: AV3; assay: Induction of mouse AV3 cell differentiation into pancreatic lineage assessed as increase in Pdx1 mRNA expression at 300 nM after 6 days by RT-PCR analysis pretreated with 1000 ng/ml recombinant mouse Nodal for 5 days; type: functional, cell-based
[24] = species: Mus musculus; assay: Induction of SOX1 expression in CD1 nude mouse ectoderm at 300 nM after 4 days by fluorescent confocal microscopy; type: functional, tissue-based
[25] = Induction of human HUES9 cell differentiation into pancreatic lineage assessed as increase in Pdx1-expression in cells pregrown with medium containing Wnt, activin, FGF10, KAAD-cyclopamine and retinoic acid at 1 uM after 1 day by Opera high content screening system; type: functional
[26] = tested on: Intestine; assay: Induction of CES2 expression in CD1 nude mouse intestine at 300 nM after 4 days by fluorescent confocal microscopy; type: functional, tissue-based
[27] = Induction of human HUES9 cell differentiation into pancreatic lineage assessed as increase in Pdx1-expression in cells pregrown with medium containing Wnt, activin, FGF10, KAAD-cyclopamine and retinoic acid at 1 uM after 4 days by Opera high content screening system; type: functional
[28] = tested on: Heart; assay: Induction of ISL1 expression in CD1 nude mouse heart at 300 nM after 4 days by fluorescent confocal microscopy; type: functional, tissue-based
[29] = tested on: Heart; assay: Induction of Troponin T expression in CD1 nude mouse heart at 300 nM after 4 days by fluorescent confocal microscopy; type: functional, tissue-based
[30] = Induction of human HUES8 cell differentiation into pancreatic progenitor cell assessed as FOXA2 expression in cells pregrown in medium containing Wnt, activin, FGF10, KAAD-cyclopamine and retinoic acid at 300 nM after 4 days by immunocytochemistry relative to control; type: functional
[31] = tested on: AV3; assay: Induction of mouse AV3 cell differentiation into pancreatic lineage assessed as increase in Hnf6 mRNA expression at 300 nM after 6 days by RT-PCR analysis pretreated with 1000 ng/ml recombinant mouse Nodal for 5 days; type: functional, cell-based
[32] = Cytotoxicity against human HUES9 cells at 300 nM; type: cell-based; details: hues9, 0.3 µM

CC(C)[C@H]1C(=O)N[C@H](CO)Cc2c[nH]c3cccc(c23)N1C [INDOLACTUM]
Activity [1]: Active | Activity [2]: 22.7% | Activity [3]: inactive | Activity [4]: Active | Activity [5]: inactive | Activity [6]: Active | Activity [7]: 26.9% | Activity [8]: inactive | Activity [9]: 3.6% | Activity [10]: inactive | Activity [11]: 21.5% | Activity [12]: inactive | inhibition [13]: 0.6% | Activity [14]: Active | Activity [15]: 3.6% | Activity [16]: Active | Activity [17]: Active | Activity [18]: Active | Activity [19]: inactive | Activity [20]: inactive | Activity [21]: Active | Activity [22]: inactive | Activity [23]: Active | Activity [24]: inactive | Activity [25]: 5.3% | Activity [26]: inactive | Activity [27]: 10.9% | Activity [28]: inactive | Activity [29]: inactive | Activity [30]: 99.5% | Activity [31]: Active | Activity [32]: Non-toxic
